In article PMC7179302, “Lead Optimization of Dehydroemetine for Repositioned Use in Malaria” (Antimicrobial Agents and Chemotherapy, 2020):
Where a name gives a salt, the structure may show the parent alone.

Key:
[1] = system: K1 strain P. falciparum, unsynchronized cultures; test: IC50 speed assay (time course) using unsynchronized cultures; format: cell-based, Plasmodium falciparum; settings: for 24-h IC50 / Time by which the IC50 was reached: unsynchronized cultures; for 24-h IC50: 24 h exposure; for Time by which the IC50 was reached: IC50 speed assay
Description: Following drug efficacy experiments, 150-μl amounts from the control and drug-treated wells on a 96-well plate were transferred to microcentrifuge tubes, and samples were washed once with phosphate-buffered saline (PBS). The supernatant was removed, and samples were incubated in the dark at room temperature for 20 min following the addition of 1 ml of 5× SYBR green solution (prepared by adding 5 μl of 10,000× SYBR green to 10 ml PBS). After staining, the samples were centrifuged for 1 min at 14,000 rpm and the supernatant was discarded. Samples were resuspended in 250 μl of 0.37% formaldehyde fixation solution prepared by diluting 36.5% formaldehyde (Sigma, UK) with PBS to the specified final concentration. The samples were placed in the refrigerator and incubated at 4°C for 15 min. Subsequently, PBS was used to wash the samples 3 times, and finally, the samples were suspended in 1 ml PBS. Parasitemia was determined by measuring SYBR green fluorescence using the FITC channel of the BD FACSVerse flow cytometer system (blue laser; excitation laser line, 488 nm, with excitation maximum of 494 nm and emission maximum of […]) and cell size (forward scatter [FSC-A]). Fifty thousand events were recorded, in three replicates for each. Fluorescence events in drug-treated samples were compared with those in their infected and uninfected blood counterparts and gated accordingly to obtain the percentages of parasitemia.
The IC50 speed assay was used to determine the speeds of action of the emetine analogues. Unsynchronized cultures of K1 strain P. falciparum were used, and parasites were grown in the presence of (−)-R,S-dehydroemetine and (−)-S,S-dehydroisoemetine for three incubation periods of 24 h, 48 h, and 72 h. The assays were analyzed by determining SYBR green fluorescence as described above.
The results for the infected-blood controls were set at 100% for normalization, and percentages of parasitemia for drug-treated samples were calculated relative to the results for the infected controls. For IC50 values, GraphPad Prism 5.0 was used to further process the data. IC50 values were calculated using nonlinear regression (GraphPad Prism 5.0) by using log-transformed drug concentrations plotted against the dose response. The log(inhibitor) versus normalized response-variable slope option was used for IC50 calculation. Emetine dihydrochloride was used as a control drug to validate the method.

HepG2 cells = test: MTT assay for cell cytotoxicity against HepG2 cells; format: cell-based; settings: for LD50 (50% lethal dose), MTT assay: HepG2 cells, 48 h, ± SD
Description: HepG2 cells (University of Salford stocks, purchased from American Type Culture Collection [ATCC], USA), were grown in medium consisting of RPMI 1640, 2 mM L-glutamine, HEPES, 10% fetal bovine serum, 1% nonessential amino acids, and 1% penicillin-streptomycin. Cells were calculated on a hemocytometer to make a new cell-medium solution to a concentration of 5,000 cells/100 μl, and 100 μl of this new cell solution was added into each well of the 96-well plate. After 24 h of incubation, 100-μl amounts of the drug prepared in the medium were added to the wells. This was repeated in triplicate, and the plate was incubated for a further 48 h ([56]). After the incubation period, 50 μl of MTT solution was added to each well and incubated for 3 h. The liquid in each well was aspirated carefully, 200 μl of DMSO was added to each well, and the results were read on the Ascent plate reader.

hERG potassium channel = target: T1, hERG potassium channel (Homo sapiens, UniProt Q12809); test: hERG channel inhibition assay (CHO cells, whole-cell voltage clamp, Cyprotex); format: cell-based; settings: for selectivity ratio at 300 s / inhibition at 300 s, 0.016 µM / inhibition at 300 s, 0.08 µM / inhibition at 300 s, 0.4 µM / inhibition at 300 s, 2 µM / inhibition at 300 s, 10 µM / inhibition at 300 s, 50 µM: human; for selectivity ratio at 300 s: CHO cells expressing the hERG potassium channel, read-out: Selectivity index, IC50 hERG/IC50 parasites
T1 construct: host or cells: Chinese hamster ovary (CHO) cells
Description: For each replicate, the hERG response was calculated using the following equation: % hERG response = post-compound-application current (nA)/pre-compound-application current (nA) × 100.
The experiment to test the potential of emetine, (−)-R,S-dehydroemetine, and (−)-S,S-dehydroisoemetine to inhibit the hERG channel was outsourced to Cyprotex, UK. One-hundred-microliter amounts of a 20 mM concentration of each of the three compounds in DMSO was provided to Cyprotex. […] Chinese Hamster ovary cells expressing the hERG potassium channel were dispensed into 384-well planar arrays, and hERG tail currents were measured by whole-cell voltage clamping. Amphotericin B was used as a perforating agent that was circulated underneath the PatchPlate to gain electrical access to the cell. The pre-compound-application hERG current was measured. Emetine, (−)-R,S-dehydroemetine, and (−)-S,S-dehydroisoemetine in ranges of concentrations were then added to the cells, and a second recording of the hERG current was made. The test compound was left in contact with the cells for 300 s before currents were recorded. […] All buffers, cell suspensions, and drug compound solutions were at room temperature. The percentage of change in hERG current was measured and used to calculate an IC50 value.
Each concentration was tested in 4 replicate wells on the PatchPlate (maximum of 24 data points). Filters were applied to ensure that only acceptable cells were used to assess hERG inhibition.

T1 sequence (Q12809 whole entry): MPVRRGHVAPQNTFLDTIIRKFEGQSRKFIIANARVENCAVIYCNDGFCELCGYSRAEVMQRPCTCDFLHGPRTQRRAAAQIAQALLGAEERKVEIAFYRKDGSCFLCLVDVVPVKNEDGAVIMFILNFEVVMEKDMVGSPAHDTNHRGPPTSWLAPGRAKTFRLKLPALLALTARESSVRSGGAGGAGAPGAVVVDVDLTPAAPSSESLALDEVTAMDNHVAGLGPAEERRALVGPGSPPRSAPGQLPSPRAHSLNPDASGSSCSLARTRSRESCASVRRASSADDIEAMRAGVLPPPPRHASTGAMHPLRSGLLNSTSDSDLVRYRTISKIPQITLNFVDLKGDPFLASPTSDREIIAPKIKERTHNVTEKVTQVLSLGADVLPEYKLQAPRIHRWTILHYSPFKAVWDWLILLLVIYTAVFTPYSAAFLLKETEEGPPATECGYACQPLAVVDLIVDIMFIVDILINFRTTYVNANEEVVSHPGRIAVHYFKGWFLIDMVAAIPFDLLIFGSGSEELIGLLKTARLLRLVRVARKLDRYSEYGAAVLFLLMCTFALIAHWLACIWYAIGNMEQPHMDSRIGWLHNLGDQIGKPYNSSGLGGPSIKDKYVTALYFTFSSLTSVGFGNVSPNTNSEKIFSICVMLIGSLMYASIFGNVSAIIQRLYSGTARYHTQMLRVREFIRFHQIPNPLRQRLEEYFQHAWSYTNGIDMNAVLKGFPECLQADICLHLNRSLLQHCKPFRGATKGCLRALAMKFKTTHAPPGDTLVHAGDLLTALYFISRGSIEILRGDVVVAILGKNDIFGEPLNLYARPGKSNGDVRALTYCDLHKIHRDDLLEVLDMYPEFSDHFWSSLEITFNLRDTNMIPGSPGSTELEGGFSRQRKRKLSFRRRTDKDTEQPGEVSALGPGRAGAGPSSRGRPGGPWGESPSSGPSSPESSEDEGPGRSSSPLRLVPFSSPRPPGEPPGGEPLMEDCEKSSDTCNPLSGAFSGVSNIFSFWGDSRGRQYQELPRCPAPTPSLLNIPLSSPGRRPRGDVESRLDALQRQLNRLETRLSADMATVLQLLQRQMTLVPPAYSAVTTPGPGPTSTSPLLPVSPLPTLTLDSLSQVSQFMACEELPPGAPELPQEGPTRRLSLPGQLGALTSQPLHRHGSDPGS

CCC1=C(C[C@H]2NCCc3cc(OC)c(OC)cc32)C[C@H]2c3cc(OC)c(OC)cc3CCN2C1 [(−)-R,S-dehydroemetine, (S)-2-((R)-6,7-dimethoxy-1,2,3,4-tetrahydro-isoquinolin-1-ylmethyl)-3-ethyl-9,10-dimethoxy-1,6,7,11b-tetrahydro-4H-pyrido[2,1-a]isoquinoline * dihydrobromide]
% Parasitaemia ([1]; 25 nM, 24 hours): 99.25% | % Parasitaemia ([1]; 25 nM, 48 hours): 95.85% | % Parasitaemia ([1]; 25 nM, 72 hours): 98.62% | % Parasitaemia ([1]; 50 nM, 24 hours): 93.88% | % Parasitaemia ([1]; 50 nM, 48 hours): 69.64% | % Parasitaemia ([1]; 50 nM, 72 hours): 89.44% | % Parasitaemia ([1]; 100 nM, 24 hours): 89.00% | % Parasitaemia ([1]; 100 nM, 48 hours): 30.44% | % Parasitaemia ([1]; 100 nM, 72 hours): 17.06% | % Parasitaemia ([1]; 200 nM, 24 hours): 77.03% | % Parasitaemia ([1]; 200 nM, 48 hours): 22.37% | % Parasitaemia ([1]; 200 nM, 72 hours): 13.20% | % Parasitaemia ([1]; 400 nM, 24 hours): 72.09% | % Parasitaemia ([1]; 400 nM, 48 hours): 19.29% | % Parasitaemia ([1]; 400 nM, 72 hours): 11.63% | 24-h IC50 [1]: could not be reached within 24 h | Time by which the IC50 was reached [1]: ≤ 48 h | Selectivity index, LD50 HepG2 cells/IC50 parasites (HepG2 cells): 2.37 | LD50 (50% lethal dose), MTT assay (HepG2 cells): 168.07 ± 8.65 nM | IC50 (hERG potassium channel): 19.3 µM | hERG channel inhibition (in words) (hERG potassium channel): not an hERG channel inhibitor | selectivity ratio at 300 s (hERG potassium channel): > 271 | inhibition at 300 s, 0.016 µM (hERG potassium channel): 7.79% | inhibition at 300 s, 0.08 µM (hERG potassium channel): 6.34% | inhibition at 300 s, 0.4 µM (hERG potassium channel): 12.7% | inhibition at 300 s, 2 µM (hERG potassium channel): 7.21% | inhibition at 300 s, 10 µM (hERG potassium channel): 39.4% | inhibition at 300 s, 50 µM (hERG potassium channel): 61.4%

CCC1=C(C[C@@H]2NCCc3cc(OC)c(OC)cc32)C[C@H]2c3cc(OC)c(OC)cc3CCN2C1 [(−)-S,S-dehydroisoemetine, (S)-2-((S)-6,7-dimethoxy-1,2,3,4-tetrahydro-isoquinolin-1-ylmethyl)-3-ethyl-9,10-dimethoxy-1,6,7,11b-tetrahydro-4H-pyrido[2,1-a]isoquinoline * dihydrobromide]
% Parasitaemia ([1]; 0.63 μM, 24 hours): 100.96% | % Parasitaemia ([1]; 0.63 μM, 48 hours): 83.33% | % Parasitaemia ([1]; 0.63 μM, 72 hours): 102.96% | % Parasitaemia ([1]; 1.25 μM, 24 hours): 95.69% | % Parasitaemia ([1]; 1.25 μM, 48 hours): 69.00% | % Parasitaemia ([1]; 1.25 μM, 72 hours): 74.67% | % Parasitaemia ([1]; 2.5 μM, 24 hours): 100.62% | % Parasitaemia ([1]; 2.5 μM, 48 hours): 45.41% | % Parasitaemia ([1]; 2.5 μM, 72 hours): 31.88% | % Parasitaemia ([1]; 5 μM, 24 hours): 92.15% | % Parasitaemia ([1]; 5 μM, 48 hours): 30.49% | % Parasitaemia ([1]; 5 μM, 72 hours): 22.99% | % Parasitaemia ([1]; 10 μM, 24 hours): 79.97% | % Parasitaemia ([1]; 10 μM, 48 hours): 24.20% | % Parasitaemia ([1]; 10 μM, 72 hours): 13.33% | 24-h IC50 [1]: could not be reached within 24 h | Time by which the IC50 was reached [1]: ≤ 48 h | Selectivity index, LD50 HepG2 cells/IC50 parasites (HepG2 cells): 0.69 | LD50 (50% lethal dose), MTT assay (HepG2 cells): 1429 ± 180 nM | IC50 (hERG potassium channel): 2.99 µM | hERG channel inhibition (in words) (hERG potassium channel): potent inhibitor | selectivity ratio at 300 s (hERG potassium channel): 1.48 | inhibition at 300 s, 0.016 µM (hERG potassium channel): 8.13% | inhibition at 300 s, 0.08 µM (hERG potassium channel): 4.61% | inhibition at 300 s, 0.4 µM (hERG potassium channel): 9.33% | inhibition at 300 s, 2 µM (hERG potassium channel): 36% | inhibition at 300 s, 10 µM (hERG potassium channel): 70.7% | inhibition at 300 s, 50 µM (hERG potassium channel): 96.9%
